Like-named read-outs stand apart in the source and are kept apart here.
Key:
[1] = biological target: T1, recombinant human cGAS (aa147-522) (Homo sapiens, UniProt Q8N884); assay: In vitro inhibition assay of cGAS activity (ATP consumption, KinaseGlo Max); format: biochemical
T1 construct: recombinant human cGAS (aa147-522); His6-SUMO (cleaved yes); made in house; host or cells: E. coli BL21/pLys
Summary of the method: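 De-tagged recombinant human cGAS (aa147-522, 1.5 μg/mL) was incubated 20 min at 37 °C with herring testis DNA, 6.6 μM ATP and 0.1 mM GTP in Tris pH 7.5/MgCl2 buffer plus serial compound dilutions. Remaining ATP was read by KinaseGlo Max luminescence, and IC50 was fitted from % ATP consumption versus log concentration.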

[2] = test system: cGAS activity in Reporter THP1 cell line; assay: Cellular assay to measure cGAS activity: ISRE-Gaussia luciferase reporter THP1 cells transfected with ISD; format: cell-based; settings: Homo sapiens
Description: Cellular assay to measure cGAS activity: Reporter THP1 cell line harboring a gene encoding Gaussia Luciferase under the control of 5 tandem repeats of interferon-stimulated response elements (ISRE) fused to an ISG54 minimal promoter was used to test inhibition of cGAS activity by synthetic compounds in human cells. These cells were plated on 96-well plates at 0.3×10^6/well and incubated with serial dilutions of compounds or DMSO for 5 min, followed by transfection of 2 μg/mL of ISD (Interferon Stimulatory DNA, a 45 bp DNA oligo) or mock transfected using lipofectamine 2000 (Life Technology) method, according to manufacturer's instructions. 16 hours later, 15 μL of the media from each well was transferred to a new plate, 50 μL of solution containing 50 mM Hepes-NaOH, pH 6.5, 50 mM NaCl, 10 mM EDTA, 1 μM of coelenterazine was added to each well and luminescence was measured immediately. Fold increase in luminescence compared to mock transfection was plotted against concentrations of each compound, and IC50 is calculated using Graphpad. To evaluate the specificity of a compound, the same procedure was performed except that cells were transfected with 2 μg/mL poly(I:C) or infected with Sendai Virus (SeV) at 50 Unit/mL, which are known to activate the RIG-I-MAVS pathway. A specific inhibitory compound should inhibit interferon induction by DNA but have minimal effect on poly(I:C) or Sendai virus induced interferon reporter gene expression.
The letter codes for cGAS IC50 include: A (<2 μM); B (2-10 μM); C (>10 μM).

[3] = Table 2, read-out: cGAS Inhibition Results IC50
[4] = THP-1, Table 4, Gaussia luciferase
[5] = Table 3, read-out: cGAS Inhibition Results IC50
[6] = THP-1, untitled table after Table 4 (continuation)

T1 sequence (Q8N884 147-522): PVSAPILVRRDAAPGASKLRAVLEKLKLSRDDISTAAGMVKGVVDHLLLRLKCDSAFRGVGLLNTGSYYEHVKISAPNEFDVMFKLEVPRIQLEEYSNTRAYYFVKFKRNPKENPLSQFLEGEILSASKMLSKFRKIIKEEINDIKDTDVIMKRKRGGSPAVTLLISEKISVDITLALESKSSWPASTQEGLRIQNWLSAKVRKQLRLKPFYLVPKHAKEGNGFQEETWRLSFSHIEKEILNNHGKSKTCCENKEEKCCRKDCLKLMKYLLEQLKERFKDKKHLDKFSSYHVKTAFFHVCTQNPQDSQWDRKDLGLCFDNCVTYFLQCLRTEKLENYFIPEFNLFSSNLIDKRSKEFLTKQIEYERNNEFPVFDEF

O=C(O)C[C@@H]1CCCN1c1cc(-n2ccnc2)c2ccc(Cl)c(Cl)c2n1 [I-443]
IC50 [1, 3]: < 2000 nM | IC50 [2, 4]: 2000 to 10000 nM

O=C(O)CCOC[C@@H]1[C@@H](O)CCN1c1cc(-n2ccnc2)c2ccc(Cl)c(Cl)c2n1 [I-698]
IC50 [1, 5]: < 2000 nM | IC50 [2, 4]: > 10000 nM

CCN(CCOCCC(=O)O)c1cc(-n2ccnc2)c2ccc(Cl)c(Cl)c2n1 [I-832]
IC50 [1, 5]: < 2000 nM | IC50 [2, 6]: < 2000 nM

O=C(O)C1CC(OC[C@@H]2CCCN2c2cc(-n3ccnc3)c3ccc(Cl)c(Cl)c3n2)C1 (some centres unmarked) [I-723]
IC50 [1, 5]: < 2000 nM | IC50 [2, 4]: 2000 to 10000 nM

COC(=O)Cc1cc(F)cc(CNc2cc(-n3ccnc3)c3ccc(Cl)c(Cl)c3n2)c1 [I-890, methyl 2-(3-(((7,8-dichloro-4-(1H-imidazol-1-yl)quinolin-2-yl)amino)methyl)-5-fluorophenyl)acetate]
IC50 [1, 5]: 2000 to 30000 nM | IC50 [2, 6]: < 2000 nM

NC(=O)COC[C@@H]1CCCN1c1cc(-n2ccnc2)c2ccc(Cl)c(Cl)c2n1 [I-760, (S)-2-((1-(7,8-dichloro-4-(1H-imidazol-1-yl)quinolin-2-yl)pyrrolidin-2-yl)methoxy)acetamide]
IC50 [1, 5]: < 2000 nM | IC50 [2, 6]: > 10000 nM

COC(=O)[C@@H]1C[C@H](F)CN1c1cc(-n2ccnc2)c2ccc(Cl)c(Cl)c2n1 [I-575]
IC50 [1, 5]: 2000 to 30000 nM | IC50 [2, 4]: 2000 to 10000 nM

O=C(O)C[C@@H]1[C@H](O)CCN1c1cc(-n2ccnc2)c2ccc(Cl)c(Cl)c2n1 [I-781, 2-((2R,3R)-1-(7,8-dichloro-4-(1H-imidazol-1-yl)quinolin-2-yl)-3-hydroxypyrrolidin-2-yl)acetic acid]
IC50 [1, 5]: < 2000 nM | IC50 [2, 6]: > 10000 nM

O=C(O)COC[C@@H]1CCCN(c2cc(-n3ccnc3)c3ccc(Cl)c(Cl)c3n2)C1 [I-744]
IC50 [1, 5]: < 2000 nM | IC50 [2, 4]: < 2000 nM

O=C(O)[C@@H]1CC2(CC2)CN1c1cc(-n2ccnc2)c2ccc(Cl)c(Cl)c2n1 [I-478]
IC50 [1, 5]: < 2000 nM | IC50 [2, 4]: 2000 to 10000 nM

O=C(O)COC[C@@H](O)[C@@H]1CCCN1c1cc(-n2ccnc2)c2ccc(Cl)c(Cl)c2n1 [I-725, 2-((S)-2-((S)-1-(7,8-dichloro-4-(1H-imidazol-1-yl)quinolin-2-yl)pyrrolidin-2-yl)-2-hydroxyethoxy)acetic acid]
IC50 [1, 5]: < 2000 nM | IC50 [2, 4]: > 10000 nM

C[C@H]1C[C@@H](COCCC(=O)O)N(c2cc(-n3ccnc3)c3ccc(Cl)c(Cl)c3n2)C1 [I-708]
IC50 [1, 5]: < 2000 nM | IC50 [2, 4]: < 2000 nM

COC(=O)[C@@H]1C[C@@H](F)CN1c1cc(-n2ccnc2)c2ccc(Cl)c(Cl)c2n1 [I-592]
IC50 [1, 5]: 2000 to 30000 nM | IC50 [2, 4]: 2000 to 10000 nM

COC(=O)/C=C/[C@@H]1CCCN1c1cc(-n2ccnc2)c2ccc(Cl)c(Cl)c2n1 [I-687]
IC50 [1, 5]: 2000 to 30000 nM | IC50 [2, 4]: > 10000 nM

COc1cc(C(=O)O)cc(-c2cc(-n3ccnc3)c3ccc(Cl)cc3n2)c1 [I-24, 3-(7-chloro-4-(1H-imidazol-1-yl)quinolin-2-yl)-5-methoxybenzoic acid]
IC50 [1, 3]: < 2000 nM | IC50 [2, 4]: 2000 to 10000 nM

O=C(O)C1CC[C@H](c2ccccc2)N1c1cc(-n2ccnc2)c2ccc(Cl)c(Cl)c2n1 (some centres unmarked) [I-487]
IC50 [2, 4]: 2000 to 10000 nM

O=C(O)CCOC[C@@H]1[C@@H]2CC2CN1c1cc(-n2ccnc2)c2ccc(Cl)c(Cl)c2n1 (stereo in doubt) [I-809]
IC50 [2, 6]: < 2000 nM

COC(=O)C1=CCCN1c1cc(-n2ccnc2)c2ccc(Cl)c(Cl)c2n1 [I-652, methyl 1-(7,8-dichloro-4-(1H-imidazol-1-yl)quinolin-2-yl)-4,5-dihydro-1H-pyrrole-2-carboxylate]
IC50 [1, 5]: 2000 to 30000 nM

Clc1ccc2c(-n3ccnc3)cc(NCCN3CCOCC3)nc2c1Cl [I-215]
IC50 [1, 3]: 2000 to 30000 nM

O=C(O)c1cc(-c2cc(-n3ccnc3)c3ccc(Cl)cc3n2)ccc1OCCO [I-21, 5-(7-chloro-4-(1H-imidazol-1-yl)quinolin-2-yl)-2-(2-hydroxyethoxy)benzoic acid]
IC50 [1, 3]: < 2000 nM

FC(F)(F)c1cc(-n2ccnc2)c2ccc(Cl)cc2n1 [I-422]
IC50 [1, 3]: > 30000 nM

COC(=O)C12CC(C)(CN1c1cc(-n3ccnc3)c3ccc(Cl)c(Cl)c3n1)C2 [I-580]
IC50 [1, 5]: > 30000 nM

NS(=O)(=O)C1CCN(c2cc(-n3ccnc3)c3ccc(Cl)c(Cl)c3n2)C1 (centres unmarked) [I-150]
IC50 [1, 3]: < 2000 nM

O=C(O)[C@@H]1C[C@@H](Oc2ccccc2)CN1c1cc(-c2cn[nH]c2)c2ccc(Cl)c(Cl)c2n1 [I-361]
IC50 [1, 3]: 2000 to 30000 nM

NC(=O)CCNC(=O)[C@@H]1CCCN1c1cc(-n2ccnc2)c2ccc(Cl)c(Cl)c2n1 [I-554]
IC50 [1, 5]: 2000 to 30000 nM

O=S(=O)(NC1CCCN(c2cc(-n3ccnc3)c3ccc(Cl)cc3n2)C1)c1ccccc1 (centres unmarked) [I-107]
IC50 [1, 3]: > 30000 nM

COC(=O)[C@@H]1[C@H](OCC(=O)O)CCN1c1cc(-n2ccnc2)c2ccc(Cl)c(Cl)c2n1 [I-648]
IC50 [1, 5]: 2000 to 30000 nM

COCn1nccc1S(=O)(=O)NCCN(C)c1cc(-n2ccnc2)c2ccc(Cl)cc2n1 [I-229]
IC50 [1, 3]: > 30000 nM

O=C(C[C@@H]1CCCN1c1cc(-n2ccnc2)c2ccc(Cl)c(Cl)c2n1)NC1CCNC1=O (some centres unmarked) [I-541]
IC50 [1, 5]: < 2000 nM

CN(CCO)c1cc(-c2cn[nH]c2)nc2c(Cl)c(Cl)ccc12 [I-297]
IC50 [1, 3]: > 30000 nM

COC(=O)[C@@H]1[C@@H](C)CCN1c1cc(-n2ccnc2)c2ccc(Cl)c(Cl)c2n1 [I-590]
IC50 [1, 5]: 2000 to 30000 nM

CN(CCC(=O)NCCS(N)(=O)=O)c1cc(-n2ccnc2)c2ccc(Cl)c(Cl)c2n1 [I-567]
IC50 [1, 5]: < 2000 nM

O=P(O)(O)CNc1cc(-c2cn[nH]c2)c2ccc(Cl)c(Cl)c2n1 [I-254, (7,8-dichloro-4-(1H-pyrazol-4-yl)quinolin-2-ylamino)methylphosphonic acid]
IC50 [1, 3]: < 2000 nM

O=C(O)CN(CCCO)c1cc(-n2ccnc2)c2ccc(Cl)c(Cl)c2n1 [I-173]
IC50 [1, 3]: 2000 to 30000 nM

O=C(O)CCO[C@H]([C@@H]1CCCN1c1cc(-n2ccnc2)c2ccc(Cl)c(Cl)c2n1)C(F)(F)F [I-721]
IC50 [1, 5]: 2000 to 30000 nM

O=C(O)[C@@H]1C[C@@H](O)CN1c1cc(-c2cn[nH]c2)c2ccc(Cl)c(Cl)c2n1 [I-433]
IC50 [1, 3]: < 2000 nM

NS(=O)(=O)CC1CCCN1C(=O)C[C@@H]1CCCN1c1cc(-n2ccnc2)c2ccc(Cl)c(Cl)c2n1 (some centres unmarked) [I-534]
IC50 [1, 5]: 2000 to 30000 nM

O=P(O)(O)CC1CCCN(c2cc(-n3ccnc3)c3ccc(Cl)c(Cl)c3n2)C1 (centres unmarked) [I-114]
IC50 [1, 3]: 2000 to 30000 nM

CC(C)N(CCN1CCOCC1)c1cc(-c2cn[nH]c2)c2ccc(Cl)c(Cl)c2n1 [I-358]
IC50 [1, 3]: 2000 to 30000 nM

CN(CCO[PH](=O)O)c1cc(-n2ccnc2)c2ccc(Cl)c(Cl)c2n1 [I-255]
IC50 [1, 3]: < 2000 nM

O=C(O)CNC(=O)C[C@@H]1CCCN1c1cc(-c2cn[nH]c2)c2ccc(Cl)c(Cl)c2n1 [I-326]
IC50 [1, 3]: < 2000 nM

NS(=O)(=O)CCNc1cc(-c2cn[nH]c2)c2cc(Cl)c(Cl)cc2n1 [I-260]
IC50 [1, 3]: < 2000 nM

O=C(O)[C@@H]1CCCN1C(=O)[C@@H]1CCCN1c1cc(-n2ccnc2)c2ccc(Cl)c(Cl)c2n1 [I-552]
IC50 [1, 5]: < 2000 nM

OC[C@@H]1CCCN1c1cc(-c2cn[nH]c2)c2ccc(Cl)c(Cl)c2n1 [I-138]
IC50 [1, 3]: < 2000 nM

CNC(=O)[C@@H]1CCCN1c1cc(-n2ccnc2)c2ccc(Cl)c(Cl)c2n1 [I-450]
IC50 [1, 3]: 2000 to 30000 nM

Cn1cc(S(=O)(=O)NC2CCCN(c3cc(-n4ccnc4)c4ccc(Cl)cc4n3)C2)cn1 (centres unmarked) [I-109]
IC50 [1, 3]: > 30000 nM

O=C1COc2ccc(S(=O)(=O)NC[C@@H]3CCCN3c3cc(-n4ccnc4)c4ccc(Cl)c(Cl)c4n3)cc2N1 [I-393]
IC50 [1, 3]: > 30000 nM

O=C(O)[C@@H]1C[C@H](OC(=O)N2CCOCC2)CN1c1cc(-n2ccnc2)c2ccc(Cl)c(Cl)c2n1 [I-571]
IC50 [1, 5]: < 2000 nM

COc1ccc(-c2cc(-c3cn[nH]c3)c3ccc(Cl)c(Cl)c3n2)cc1C(=O)O [I-427]
IC50 [1, 3]: < 2000 nM

O=S(=O)(O)CC(Cc1ccccc1)Nc1cc(-n2ccnc2)c2ccc(Cl)c(Cl)c2n1 (centres unmarked) [I-162, 2-((7,8-dichloro-4-(1H-imidazol-1-yl)quinolin-2-yl)amino)-3-phenylpropane-1-sulfonic acid]
IC50 [1, 3]: > 30000 nM

— US11873291B2, “Quinoline cGAS antagonist compounds” (ImmuneSensor Therapeutics, Inc., priority 2020, dated 2024)
